In series [1] the test system is human lung large cell carcinoma, MDR negative (NCI-H460) cells. Kind of series: 48-hour cellular proliferation assay (sulforhodamine staining), NCI-H460 cells. The note with it: 10^−4 M compound; for inhibition at 100 µM: Homo sapiens, read-out: NCI-460 % inhibition at 10^−4 M. Type of series: cell-based. On the procedure: (§1) Compounds of this invention were tested in a 48-hour cellular proliferation assay which uses human colon adenocarcinoma, MDR positive (HCT-15) cells, and human lung large cell carcinoma, MDR negative (NCI-H460) cells, in the 96-well microtitre format described in Skehan P., et al. New Colorimetric Cytotoxicity Assay for Anticancer Drug Screening. 1990, J. Natl. Cancer Inst. 82:1107-1112, hereby incorporated by reference. Briefly, the wells of a microtitre plate were charged sequentially with cultured cells and compounds of the invention (1.0×10^−4 to 1.0×10^−11 M in 10% DMSO prepared by dissolving compounds of the invention in DMSO and adding 11 μL of the DMSO solution to 100 μL of culture medium for a final DMSO concentration of 10%). Two of the following controls were also present in each microtitre plate: a solvent (DMSO) control without drug that yielded a 0% inhibition level and a trichloroacetic acid-treated well that yielded a 100% inhibition level. The cells were grown in culture (37° C., 5% CO2 atmosphere) for 48 hours then fixed by the addition of trichloroacetic acid. The wells were stained with sulforhodamine, washed with 1% acetic acid, and treated with 0.01 M tris buffer (100 μL) to solubilize the adherent dye. The absorbance of the dye solution was measured with a Molecular Devices SpectraMax340 plate reader. The percent inhibition values were obtained by calculating the proportional response of the experimental values to the absorbance values of the controls.

Series [2] relates to human colon adenocarcinoma, MDR positive (HCT-15) cells. Kind of series: 48-hour cellular proliferation assay (sulforhodamine staining), HCT-15 cells. In kind it is cell-based. Particulars: 10^−4 M compound, HCT-15 cells (MDR positive); for inhibition at 100 µM: Homo sapiens. On the procedure: as §1

Here are results for 18 compounds from patent publication US6924304B2, “Cell proliferation inhibitors” (Abbott Laboratories, priority 1999, dated 2005).

A word on the inhibition: it is how much of the control response was suppressed. The melting point is the temperature, or range, at which the solid turns liquid.

Where a name gives a salt, the structure may show the parent alone.

In turn, `COc1ccc(C[S+]([O-])c2cc(OC)c(OC)c(OC)c2)cc1` (stereo not shown) [Example 86, 1,2,3-trimethoxy-5-((4-methoxybenzyl)sulfinyl)benzene] came in with a melting point of 103 to 105 °C. For the same compound, the inhibition at 100 µM in series [1] amounted to 96.5%. Also, the inhibition at 100 µM in series [2] amounted to 99.4%.

On to `COc1ccc(CS(=O)(=O)c2cc(OC)c(OC)c(OC)c2)cc1` [Example 87, 1,2,3-trimethoxy-5-((4-methoxybenzyl)sulfonyl)benzene], for which the melting point was 95 to 97 °C. Besides, the inhibition at 100 µM in series [1] amounted to 99.6%. Also, the inhibition at 100 µM in series [2] was found to be 99.9%.

`COc1ccc(S(=O)(=O)Oc2cc(OC)c(OC)c(OC)c2)cc1` [Example 40, (3,4,5-trimethoxyphenyl) 4-methoxybenzenesulfonate]: the inhibition at 100 µM in series [1] and in series [2] was 99.9% throughout.

`COc1ccc(C(C)(C)S(=O)(=O)c2cc(OC)c(OC)c(OC)c2)cc1` [Example 88, 1,2,3-trimethoxy-5-((1-(4-methoxyphenyl)-1-methylethyl)sulfonyl)benzene]: the figures for the inhibition at 100 µM in series [1] and in series [2] were 58.4% and 85.5%, respectively.

For `COc1ccc(OS(=O)(=O)c2cc(OC)c(OC)c(OC)c2)cc1` [Example 47, 4-methoxyphenyl 3,4,5-trimethoxybenzenesulfonate], the figures for the inhibition at 100 µM in series [1] and in series [2] were 99.9% and 100%, respectively.

On to `COc1ccc(S(=O)(=O)Cc2cc(OC)c(OC)c(OC)c2)cc1` [Example 94, 1,2,3-trimethoxy-5-(((4-methoxyphenyl)sulfonyl)methyl)benzene], for which the inhibition at 100 µM was determined as 90.1% in series [1] and 97.7% in series [2].

With `COc1ccc(CSc2cc(OC)c(OC)c(OC)c2)cc1` [Example 85, 1,2,3-trimethoxy-5-((4-methoxybenzyl)sulfanyl)benzene], the melting point is 65 to 67 °C. Moreover, the inhibition at 100 µM in series [1] came out at 99.6%. This compound registered an inhibition at 100 µM in series [2] of 99.8%.

Consider `COc1cc(S(=O)(=O)Nc2ccc3[nH]cc(Cl)c3c2)cc(OC)c1OC` [Example 33, N-(3-chloro-1H-indol-5-yl)-3,4,5-trimethoxybenzenesulfonamide], for which the inhibition at 100 µM in series [1] turned out to be 2.8%; in series [2], 92%.

On to `COc1ccc(CS(=O)(=O)c2cc(OC)c(OC)c(OC)c2)cc1N` [Example 91, 2-methoxy-5-(((3,4,5-trimethoxyphenyl)sulfonyl)methyl)aniline], for which the figures for the inhibition at 100 µM in series [1] and in series [2] were 99.8% and 95%, respectively.

With `COc1cc(S(=O)(=O)Nc2ccc(OC(F)(F)F)cc2)cc(OC)c1OC` [Example 26, 3,4,5-trimethoxy-N-(4-(trifluoromethoxy)phenyl)benzenesulfonamide], the inhibition at 100 µM in series [1] amounted to 46.7%; in series [2] it was 70.9%.

With `COc1ccc(S(=O)(=O)Nc2cc(OC)c(OC)c(OC)c2)cc1N` [Example 10, 3-amino-4-methoxy-N-(3,4,5-trimethoxyphenyl)benzenesulfonamide hydrochloride], the inhibition at 100 µM in series [1] is 99.6%; in series [2] it was 99.8%.

On to `COc1cc(N(C(=O)CN(C)C)S(=O)(=O)c2ccc3c(ccn3C)c2)cc(OC)c1OC` (as salt: salt) [Example 67, N-((dimethylamino)acetyl)-1-methyl-N-(3,4,5-trimethoxyphenyl)-1H-indole-5-sulfonamide], for which the melting point lay in the range of 200 to 203 °C.

As to `COc1cc(N(C(=O)[C@@H](N)Cc2cnc[nH]2)S(=O)(=O)c2ccc3c(ccn3C)c2)cc(OC)c1OC` [Example 76, N-((2S)-2-amino-3-(1H-imidazol-5-yl)propanoyl)-1-methyl-N-(3,4,5-trimethoxyphenyl)-1H-indole-5-sulfonamide], the melting point was in the range of 175 to 177 °C.

As to `COc1cc(S(=O)(=O)Nc2ccc3c(ccn3C)c2)cc(OC)c1OC` [Example 23, N-(1-methyl-1H-indol-5-yl)-3,4,5-trimethoxybenzenesulfonamide], the inhibition at 100 µM in series [1] and in series [2] was 100% in each case.

As for `COc1cc(S(=O)(=O)Nc2ccc3[nH]ncc3c2)cc(OC)c1OC` [Example 34, N-(1H-indazol-5-yl)-3,4,5-trimethoxybenzenesulfonamide], the inhibition at 100 µM in series [1] worked out at 18.5%; in series [2], 47.6%.

As for `COc1cc(S(=O)(=O)Nc2ccc(N(C)C)cc2)cc(OC)c1OC` [Example 24, N-(4-(dimethylamino)phenyl)-3,4,5-trimethoxybenzenesulfonamide], the results for the inhibition at 100 µM in series [1] and in series [2] were 92% and 95.8%, respectively.

With `COc1ccc(NS(=O)(=O)c2cc(OC)c(OC)c(OC)c2)cc1` [Example 21, 3,4,5-trimethoxy-N-(4-methoxyphenyl)benenesulfonamide], the “NCI-460 % inhibition at 10^−4 M” value in series [1] was 96.0%. Also, the “HCT-15 % inhibition at 10^−4 M” value in series [2] stood at 97.8%.

For `COc1cc(S(=O)(=O)Oc2ccc(C)cc2)cc(OC)c1OC` [Example 45, 4-methylphenyl 3,4,5-trimethoxybenzenesulfonate], the figures for the inhibition at 100 µM in series [1] and in series [2] were 99.4% and 99.9%, respectively.
